# Measurements: patent US20080206231A1, “Compositions and Methods for Treating Disease” (OREGON HEALTH AND SCIENCE UNIVERSITY, priority 2004, published 2008)
# Key:
# [1] = tested on: MAPK kinase (MEK); conditions: Harmon et al., 2004; cited from earlier work
# [2] = tested on: insulin signaling; experiment: EGFR inhibitor study: insulin signaling (ERK and Akt/PKB activation) in control MCF-7 cells; type: cell-based, human; conditions: inhibitor 5 minutes prior to 10 nM insulin, FIG. 5
# Protocol: (§1) Control MCF-7 cells were serum-starved overnight and treated with the EGFR kinase inhibitor AG1478 (Sigma) or vehicle (DMSO) for 5 minutes prior to the addition of 14 nM EGF or 10 nM insulin (Sigma). After growth factor treatment, cell lysates were prepared and analyzed for ERK and Akt/PKB activation as described above. The 24-hour treatment was done in regular growth medium.
# [3] = tested on: insulin receptor; experiment: EGFR inhibitor study: insulin receptor level in MCF-7 cells; type: cell-based, human; conditions: 24-hour treatment in regular growth medium, FIG. 6
# Protocol: as §1
# [4] = target: T1, IGF-IR (Homo sapiens, UniProt P08069); experiment: IGF-IR expression, Western immunoblot in MCF-7 cells; type: cell-based; conditions: Herstatin-expressing MCF-7 cells vs control
# T1 construct: Lysates from control and Herstatin-expressing MCF-7 cells were prepared from respective untreated (no insulin) cells; endogenous in cells; host or cells: MCF-7 (control and Herstatin-expressing clones)
# Protocol: (§2) Western blot analysis, and antibodies. For Western blot analyses, whole-cell lysates or immunoprecipitated proteins were resolved by SDS-PAGE and transferred onto nitrocellulose membranes (BioRad, Hercules, Calif.). Blots were blocked in 5% milk and incubated with primary antibody overnight at 4° C. The antibodies included anti-insulin receptor (IR; against the β subunit), anti-IGF-IR, anti-IRS-1, anti-IRS-2, anti-phosphotyrosine, anti-phospho-Akt, anti-Akt, anti-phospho-ERK, anti-ERK, and anti-Shc antibodies (Santa Cruz Biotechnology, Transduction Laboratories, Cell Signaling Technologies, Upstate Laboratories, or Biosource). After washing, the blots were incubated with secondary antibody conjugated to HRP for 30 min (BioRad, Hercules, Calif.). The membranes were developed with SuperSignal™ West Dura (Pierce, Rockford, Ill.) and exposed to x-ray film.
# (§3) Results. […] Lysates from control and Herstatin-expressing MCF-7 cells were prepared from respective untreated (no insulin) cells following overnight incubation in serum-free media, and processed directly or (in the case of the IR) also immunoprecipitated prior to Western immunoblot analysis as described in relation to FIG. 2.
# [5] = tested on: 3T3 parental cells; experiment: Herstatin cell binding ELISA on parental cells; conditions: NIH-3T3 parental cells, 2 hrs on ice
# Protocol: (§4) ELISA. Monolayer cultures of ˜2×10^6 cells were plated in 6-well tissue culture plates, and were incubated with purified Herstatin for 2 hours at 4° C. in serum-free DMEM. Cells were washed with Phosphate Buffered Saline (PBS) and extracted in 50 mM Tris·HCl, pH 7.0, 1.0% NP-40. Herstatin bound to cells were quantified using a sandwich Herstatin ELISA per manufacturer's instructions (Upstate Biotechnology, Lake Placid, N.Y.).
# (§5) The dissociation constant (KD) and maximal binding (Bmax) of Herstatin were determined by nonlinear regression analysis of the plot of pmol of bound versus nM of Herstatin added. Statistical comparisons between different binding curves were performed by extra sums-of-squares F-test nonlinear regression coefficients. All tests were performed (α=0.05) using GraphPad™ Prism 4™ software (GraphPad™ Software, 1994-2003).
# (§6) Results. The interaction between Herstatin and IR was investigated. […] Increasing concentrations of Herstatin, expressed and purified from stably-transfected S2 insect cells, were added to 3T3 parental cells (filled triangles; “NIH-3T3”) or 3T3 cells transfected with a human IR cDNA (filled squares; “IRA-3T3”) as previously described (Shamieh et al., FEBS Letters, 568:163-166, 2004). After incubation for 2 hrs on ice, the cells were washed twice with PBS, and the bound Herstatin was quantified using a Herstatin ELISA (Upstate). […]
# [6] = target: T2, insulin receptor (IR) (Homo sapiens, UniProt P06213); experiment: Herstatin cell binding ELISA on IRA-3T3 cells; parameters: expressed in transfected cells; host or cells: NIH-3T3 (IRA-3T3); conditions: 3T3 cells transfected with human IR cDNA (IRA-3T3), purified Herstatin from S2 insect cells, 2 hrs on ice
# Protocol: as §4, §5, §6
# [7] = tested on: IRS-1, IRS-2, Shc, ERK1 and ERK2; experiment: Expression/phosphorylation state of insulin signaling proteins (IRS-1, IRS-2, Shc, ERK) in MCF-7 cells; type: cell-based, human; conditions: Herstatin-expressing MCF-7 cells vs control, no insulin
# Protocol: as §2, §3
# [8] = tested on: P13K/Akt pathway; experiment: Insulin-stimulated Akt activation in MCF-7 cells; type: cell-based, human; conditions: Herstatin-expressing MCF-7 cells vs control
# Protocol: as §2, with “After washing, the blots were incubated with secondary antibody conjugated to HRP for 30 min (BioRad, Hercules, Calif.). The membranes were developed with SuperSignal™ West Dura (Pierce, Rockford, Ill.) and exposed to x-ray film.” left out
# Results. […] Insulin was then added to the control and Herstatin-expressing cells and whole-cell lysates were prepared at the indicated times and processed directly for Western immunoblots with anti-insulin receptor (IR), phospho-Akt, Akt, phospho-ERK, and ERK antibodies, or first immunoprecipitated with anti-IR antibody and immunoprecipitates (IP) then analyzed by Western immunoblotting with anti-phosphotyrosine and anti-IR antibodies after transfer to nitrocellulose membranes. Following incubation of blots with primary antibodies, immunoreactive proteins were detected by enhanced chemiluminescence after a secondary incubation with HRP-conjugated secondary antisera. […]
# [9] = target: T2, insulin receptor (IR); experiment: IR expression and activation, Western immunoblot in MCF-7 cells; type: cell-based; parameters: whole-cell lysates were prepared at the indicated times and processed directly for Western immunoblots with anti-insulin receptor (IR); endogenous in cells; host or cells: MCF-7 (control and Herstatin-expressing clones)
# Protocol: as §2
# Methods. Cell lines, expression vectors, protein purification, pull down assays, antibodies, Western blot analysis and ELISA assays were as described under EXAMPLE I, herein above. Insulin was added either to MCF-7 breast carcinoma cells, or to an MCF-7 cell line stably transfected with a Herstatin expression vector, to determine whether Herstatin expression affects IR expression, and/or insulin-stimulated IR signal transduction.
# Results. […] Control and Herstatin-expressing MCF-7 cells were grown in complete medium prior to an overnight incubation in serum-free medium. Insulin was then added to the control and Herstatin-expressing cells and whole-cell lysates were prepared at the indicated times and processed directly for Western immunoblots with anti-insulin receptor (IR), phospho-Akt, Akt, phospho-ERK, and ERK antibodies, or first immunoprecipitated with anti-IR antibody and immunoprecipitates (IP) then analyzed by Western immunoblotting with anti-phosphotyrosine and anti-IR antibodies after transfer to nitrocellulose membranes. Following incubation of blots with primary antibodies, immunoreactive proteins were detected by enhanced chemiluminescence after a secondary incubation with HRP-conjugated secondary antisera. […]
# [10] = Herstatin-expressing MCF-7 cells vs control MCF-7
compound,measurement,setting,value
N#CC(=C(/N)Sc1ccccc1N)/C(C#N)=C(/N)Sc1ccccc1N [U-0216],inhibition of insulin-stimulated glucose uptake,[1],significant inhibition
COc1cc2ncnc(Nc3cccc(Cl)c3)c2cc1OC [AS1478],effect on insulin signaling,[2],did not affect insulin signaling
same,increase in insulin receptor (IR),[3],does not Affect Insulin Signaling or Lead to an Increase in IR
"Herstatin: secreted product of an HER-2 alternative transcript; cell surface receptor isoform (intron fusion protein), polypeptides of SEQ ID NO:2",decrease in IGF-IR expression,[4],~4 fold
same,Herstatin binding to 3T3 parental cells,[5],but not to 3T3 parental cells
same,Herstatin binding to cells expressing IR,[6],binds at nM concentrations
same,IRS-2 levels,[7],slight decrease
same,apparent serine phosphorylation of IRS-2,[7],decrease
same,apparent serine phosphorylation state of IRS-1,[7],decrease
same,relative expression of Shc isoforms,[7],alters the relative expression of Shc isoforms
same,relative expression ratio of ERK1 and ERK2,[7],increases the relative expression ratio of ERK1 and ERK2
same,effect on insulin-stimulated activation of the P13K/Akt pathway,[8],little effect
same,accumulation of pro-IR,[9]; [10],induce the accumulation of pro-IR
same,up-regulation of basal IR expression,[9]; [10],several-fold
same,IR activation by insulin,"[9]; Herstatin-expressing MCF-7 cells, insulin added after overnight serum-free, anti-phosphotyrosine blot of IR IP",up-regulated IR activation
COc1cccc(-c2cc(=O)c3ccccc3o2)c1N [PD-98059],inhibition of insulin-stimulated glucose uptake,[1],significant inhibition
